We go through twelve compounds from publication PMC8541513, “Stereoselective Synthesis of the Di-Spirooxindole Analogs Based Oxindole and Cyclohexanone Moieties as Potential Anticancer Agents” (Molecules, 2021).

Where two headings read alike, the source gives them in different places. A value given as a limit tells only on which side of the number the result lay.

One data set deals with Human Fibroblast BJ. Description: MTT cytotoxicity assay against BJ human fibroblast cells. The format is cell-based. Particulars: 48 h, 1-30 µM, ± SD of three independent experiments. The procedure:
(§1) Cytotoxicity against BJ human fibroblast cells and cytotoxicity against PC3, HeLa, MCF-7, and MDA-MB231 cancer cell lines were evaluated by following the procedure as described in the literature (Supplementary Materials). […]
(§2) The Biological Activity Assays Protocols
(§3) Cytotoxic activity of compounds was evaluated in 96-well flat-bottomed micro plates by using the standard MTT (3-[4, 5-dimethylthiazole-2-yl]-2, 5-diphenyl-tetrazolium bromide) colorimetric assay.
(§4) For this purpose, PC3 cells (Prostate Cancer) / BJ Human fibroblast cells / HeLa cells (Cervical Cancer) / MCF-7 and MDA-MB-231 breast cancer cell line were cultured in Dulbecco’s Modified Eagle Medium, supplemented with 5% of fetal bovine serum (FBS), 100 IU/ml of penicillin and 100 µg/ml of streptomycin in 75 cm2 flasks, and kept in 5% CO2 incubator at 37 °C. Exponentially growing cells were harvested, counted with haemocytometer and diluted with a particular medium. Cell culture with the concentration of 1x10^5 cells/ml was prepared and introduced (100 µL/well) into 96-well plates. After overnight incubation, medium was removed and 200 µL of fresh medium was added with different concentrations of compounds (1-30µM). After 48 hrs, 200 µL MTT (0.5 mg/ml) was added to each well and incubated further for 4 hrs. Subsequently, 100µL of DMSO was added to each well. The extent of MTT reduction to formazan within cells was calculated by measuring the absorbance at 570 nm, using a micro plate reader (Spectra Max plus, Molecular Devices, CA, USA). The cytotoxicity was recorded […]
(§5) (1 picture or pasted object on this page, not shown here) […]
(§6) as concentration causing 50% growth inhibition (IC50) for PC3 cells. The percent inhibition was calculated by using the following formula:
(§7) % inhibition = 100-((mean of O.D of test compound – mean of O.D of negative control)/ (mean of O.D of positive control – mean of O.D of negative control)*100).
(§8) The results (% inhibition) were processed by using Soft- Max Pro software (Molecular Device, USA).
(§9) Standard drug used in the MTT assay was doxorubicin. […]
On the technique in general: Tetrazolium assays rely on reduction of a dye to a coloured formazan, in cell work by metabolically active cells.

The test system of a further data set is Breast MDA-MB231. Description: MTT anticancer assay, breast MDA-MB231 cells. The class given is cell-based. Also noted: key to IC50, Breast MDA-MB231: NA means that the tested compound did not show anticancer activity at 30 µM; NS: Not soluble. Particulars: 1-30 µM, ± SD of three independent experiments; for IC50: Homo sapiens, MDA-MB-231, 48 h; for IC50, Breast MDA-MB231: 48 h. The procedure:
(§10) The antiproliferative activity against four cancer cell lines, including prostate PC3, cervical HeLa, and triple-negative breast cancer (MCF-7 and MDA-MB231) was evaluated by MTT assay, while standard drug doxorubicin was used as a reference for comparison (Table 1).
as §1, §2, §3, §4, §5, §6, §7, §8, §9

Another data set has as its system Prostate PC3. Description: MTT anticancer assay, prostate PC3 cells. The class given is cell-based. Particulars: 1-30 µM, ± SD of three independent experiments; for IC50: Homo sapiens, PC-3, 48 h. The procedure:
as §10, §1, §2, §3, §4, §5, §6, §7, §8, §9

Another data set has as its system HeLa cancer cell line. Also noted: method as in doi:10.1016/j.molstruc.2019.03.032. Particulars: cited from earlier work.
For another data set, the system named is Breast MCF-7. Kind of data set: MTT anticancer assay, breast MCF-7 cells. The class given is cell-based. Set-up: key to IC50, Breast MCF-7: NA means that the tested compound did not show anticancer activity at 30 µM; NS: Not soluble. Particulars: 1-30 µM, ± SD of three independent experiments; for IC50: Homo sapiens, MCF7, 48 h. The procedure:
as §10, §1, §2, §3, §4, §5, §6, §7, §8, §9

For a further data set, the system named is Cervical HeLa. Description: MTT anticancer assay, cervical HeLa cells. The class given is cell-based. Particulars: Homo sapiens, HeLa, 48 h, 1-30 µM, ± SD of three independent experiments. The procedure: as §10, §1, §2, §3, §4, §5, §6, §7, §8, §9
A further data set concerns HeLa cancer cells. Also noted: method as in PMID 30844686. Particulars: cited from earlier work.
Data set [1] concerns MCF-7 breast cancer cells. Set-up: method as in PMID 28126436, PMID 29413708. Particulars: cited from earlier work.
Data set [2] has as its system K562 leukemia cancer cells. Also noted: method as in PMID 28126436, PMID 29413708. Particulars: cited from earlier work.
The test system of data set [3] is HepG2. Set-up: method as in Barakat et al. (15). Particulars: ref Barakat et al. (15); cited from earlier work.
The test system of data set [4] is HepG2. Set-up: method as in PMID 30802707. Particulars: cited from earlier work.
In a further data set the test system is HCT-116. Set-up: method as in PMID 30802707. Particulars: cited from earlier work.
In the next data set the test system is PC-3. Set-up: method as in PMID 30802707. Particulars: cited from earlier work.

The IC50 is the concentration needed to halve the response being measured. On to `COc1cccc2c1C(=O)c1c(O)c3c(c(O)c1C2=O)C[C@@](O)(C(=O)CO)C[C@@H]3O[C@H]1C[C@H](N)[C@H](O)[C@H](C)O1` [Doxorubicin, reference compound], for which the IC50 with Human Fibroblast BJ was more than 30 µM; with Breast MDA-MB231, 0.32 ± 0.002 µM; in the data set with Prostate PC3, 1.9 ± 0.4 µM; in the data set on HeLa cancer cell line, 1.2 µM; in the data set with Breast MCF-7 it was 0.79 ± 0.05 µM; in the data set with Cervical HeLa, 0.9 ± 0.14 µM.

On to `O=C(c1ccccn1)[C@@H]1[C@@H](c2ccccc2Cl)[C@H](c2ccccc2)N[C@@]12C(=O)Nc1ccccc12` [III], for which the “selectivity between HeLa cancer cells and Vero healthy cells” value in the data set on HeLa cancer cells was 3 fold.

As for `O=c1[nH]cc(F)c(=O)[nH]1` [Compound 5-FU, 5-fluorouracil], the IC50 in [1] is 78.28 ± 0.2 µM.

For the compound `O=C(c1ccc(F)cc1)[C@H]1[C@H](c2ccc(Cl)cc2Cl)C2CSCN2[C@]12C(=O)Nc1ccccc12` (some centres unmarked) [VI], in the data set with HeLa cancer cell line, the IC50 was 11.2 µM.

For `COc1ccc(C=C2CCCC3(C2=O)C(c2ccc(OC)cc2)C2CSCN2C32C(=O)Nc3ccccc32)cc1` (centres unmarked) [VII], in data set [2], the 50% inhibitory concentration (IC50) is 13.4 ± 0.14 µM.

Turning to `O=C1C(=Cc2ccc(Br)cc2)CCCC12C1CCCN1C1(C(=O)Nc3ccccc31)C2c1ccc(Br)cc1` (centres unmarked) [VIII], the IC50 in data set [1] was 15.32 ± 0.02 µM.

What is called melting point is the temperature, or range, at which the solid turns liquid. For `O=C1/C(=C/c2ccc(F)cc2)CCC[C@@]12[C@H](c1ccc(F)cc1)[C@H]1C[C@@H]3CCCC[C@@H]3N1[C@]21C(=O)Nc2cc(Cl)ccc21` [Compound 4l, (1. S,1′S,3′S,4a′S,8a′S,9a′R)-6″-Chloro-3-((E)-4-fluorobenzylidene)-1′-(4-fluorophenyl)-4a′,5′,6′,7′,8′,8a′,9′,9a′-octahydro-1′H-dispiro[cyclohexane-1,2′-pyrrolo[1,2-a]indole-3′,3″-indoline]-2,2″-dione], the melting point is 96 to 97 °C. In the data set on Human Fibroblast BJ, this compound gave an IC50 of more than 30 µM. The same compound registered an IC50 in the data set on Breast MDA-MB231 of 14.45 ± 0.08 µM. In the data set with Prostate PC3, the IC50 was more than 30 µM. Also, in the data set on Breast MCF-7, the half-maximal inhibitory concentration (IC50) is more than 30 µM. Further, the IC50 in the data set with Cervical HeLa was found to be 7.2 ± 0.5 µM.

`O=C1/C(=C/c2ccccc2)CCC[C@@]12[C@H](c1ccccc1)[C@H]1C[C@@H]3CCCC[C@@H]3N1[C@]21C(=O)Nc2ccccc21` [Compound 4a, (1. S,1′S,3′S,4a′S,8a′S,9a′R)-3-((E)-Benzylidene)-1′-phenyl-4a′,5′,6′,7′,8′,8a′,9′,9a′-octahydro-1′H-dispiro[cyclohexane-1,2′-pyrrolo[1,2-a]indole-3′,3″-indoline]-2,2″-dione]: the melting point was in the range of 70 to 71 °C. Also, the IC50 in the data set with Human Fibroblast BJ is more than 30 µM. Also, the midpoint of inhibition in the data set with Breast MDA-MB231, the IC50, lay at 19.5 ± 0.56 µM. In addition, half-maximal inhibition with Prostate PC3 (IC50) was put at 24.1 ± 1.1 µM. Also, the half-inhibitory concentration (IC50) in the data set with Breast MCF-7 came out at 25 ± 0.57 µM. The IC50 in the data set with Cervical HeLa worked out at 7.1 ± 0.2 µM.

`O=C1/C(=C/c2ccc(Br)cc2)CCC[C@@]12[C@H](c1ccc(Br)cc1)[C@H]1C[C@@H]3CCCC[C@@H]3N1[C@]21C(=O)Nc2ccc([N+](=O)[O-])cc21` [Compound 4g, (1. S,1′S,3′S,4a′S,8a′S,9a′R)-3-((E)-4-bromobenzylidene)-1′-(4-bromophenyl)-5″-nitro-4a′,5′,6′,7′,8′,8a′,9′,9a′-octahydro-1′H-dispiro[cyclohexane-1,2′-pyrrolo[1,2-a]indole-3′,3″-indoline]-2,2″-dione] yielded a melting point of 125 to 126 °C. Moreover, it took 21.7 ± 0.2 µM to reach half-maximal inhibition in the data set with Human Fibroblast BJ (IC50). In the data set with Breast MDA-MB231, the “IC50, Breast MDA-MB231” value is “NS”. Further, in the data set on Prostate PC3, the IC50 is 14.3 ± 1 µM. For the same compound, the IC50 in the data set on Breast MCF-7 is more than 30 µM. In the data set on Cervical HeLa, this compound came in with a half-inhibitory concentration (IC50) of more than 30 µM.

In turn, `O=C1/C(=C/c2ccc(Br)cc2)CCC[C@@]12[C@H](c1ccc(Br)cc1)[C@H]1C[C@@H]3CCCC[C@@H]3N1[C@]21C(=O)Nc2cc(Cl)ccc21` [Compound 4f, (1. S,1′S,3′S,4a′S,8a′S,9a′R)-3-((E)-4-Bromobenzylidene)-1′-(4-bromophenyl)-6″-chloro-4a′,5′,6′,7′,8′,8a′,9′,9a′-octahydro-1′H-dispiro[cyclohexane-1,2′-pyrrolo[1,2-a]indole-3′,3″-indoline]-2,2″-dione] registered a melting point of 97 to 98 °C. This compound gave an IC50 in the data set with Human Fibroblast BJ of more than 30 µM. Moreover, in the data set on Breast MDA-MB231, the “IC50, Breast MDA-MB231” value is “NS”. Moreover, the “IC50, Prostate PC3” value with Prostate PC3 (48 h) was “inactive”. Also, in the data set with Prostate PC3, the half-maximal inhibitory concentration (IC50) is more than 30 µM. In addition, the “IC50, Breast MCF-7” value in the data set with Breast MCF-7 (48 h) is recorded as “NS ^c”. The IC50 with Cervical HeLa was more than 30 µM.

As to `N.N.[Cl][Pt][Cl]` [cisplatin], in the data set with HepG2 [3], the IC50 was 5.5 µM.

Consider `O=C(/C=C/c1ccc(Cl)cc1Cl)[C@H]1[C@H](c2ccc(Cl)cc2Cl)[C@H]2CSCN2[C@]12C(=O)Nc1ccccc12` [V], for which the IC50 with HepG2 [4], with HCT-116 and in the data set on PC-3 was less than 4 µM in each case. Further, the “selectivity index for the cancer cells versus the normal cells” value in the data set on HCT-116 (HCT-116, HepG2, PC-3 versus normal cells) is more than 2.
